# Columns and labels:
# animals = conditions: in animals; cited from earlier work
# [1] = in vivo; cited from earlier work
# [2] = pH 5.6, 37° C., 0.1M phosphate buffer; cited from earlier work
# platelet aggregation = conditions: subjects who were non-responders to clopidogrel (10-300 mg) perorally
# [3] = system: ADP-induced platelet aggregation; conditions: i.v., 0.1-300 mg clopidogrel
# Method: The response was determined as percent of platelet aggregation inhibition following exposure of the subjects' plasma ex-vivo to ADP (5 μM).
# Blood samples for determination of ADP-induced platelet aggregation inhibition using the impedance method (see Dyszkiewicz-Korpanty et al. above) were obtained from arm #2 (the arm not used for dosing) at baseline (check-in, Day −1), 15 and 30 minutes, and 2, 5, and 24 hours after dose initiation.
# Maximum % platelet inhibition and area under the % platelet inhibition curve was calculated for each individual and summarized by treatment group
# phosphodiesterase = conditions: cited from earlier work
# [4] = Competitive binding study of clopidogrel bisulfate and aspirin with SAE-CD (Example 22); type: physicochemical; conditions: pH ~5.5
# Method: In this example, excess clopidogrel bisulfate was added to solutions containing fixed amounts of SAE-CD and varying amounts of aspirin. FIG. 7 depicts the results of a competitive binding study. […] Thus, in a formulation containing both clopidogrel and aspirin, the formulation may or may not require additional SAE-CD to solubilize both ingredients than would be required to solubilize either component individually.
# The competitive binding study was conducted using clopidogrel bisulphate and aspirin (ASA, acetyl salicylic acid). The work was conducted on an auto-titrator such that the pH was maintained at ˜5.5 using sodium hydroxide. The required amount of SBE-β-CD and aspirin was first solubilized in 0.2 μm Millipore filtered water then transferred to the auto-titrator.
# After equilibration, the solutions were sampled and analyzed for clopidogrel content.
smiles,measurement,setting,value
"COC(=O)[C@@H](c1ccccc1Cl)N1CCc2sccc2C1 (single isomer, unassigned) [(R)-enantiomer of clopidogrel]",convulsions,animals,can provoke convulsions
same,antithrombotic activity,[1],devoid of antithrombotic activity
"COC(=O)[C@H](c1ccccc1Cl)N1CCc2sccc2C1.O=S(=O)(O)O [clopidogrel bisulfate, methyl (+)-(S)-α-(2-chlorophenyl)-6,7-dihydrothieno[3,2-c]pyridine-5(4H)-acetate sulfate (1:1)]",t90 toward hydrolysis,[2],about 52.7 days
same,subjects deemed responders after parenteral administration,platelet aggregation,9-25%
same,"time to onset of the therapeutic effect (platelet aggregation inhibition, 5 μM ADP ex vivo)",[3],≤ 15 min
same,inhibition of phosphodiesterase activity,phosphodiesterase,does not inhibit
"CC(=O)Oc1ccccc1C(=O)O [aspirin, acetyl salicylic acid]",binding with SAE-CD in a solution containing SAE-CD and clopidogrel salt,[4],binds competitively

# Source: patent publication US8853236B2, “Formulations containing clopidogrel and sulfoalkyl ether cyclodextrin and methods of use” (Cydex Pharmaceuticals, Inc., priority 2007, dated 2014)
